Results on one molecule are retold here after patent US9573970B2, “4-{4-[(1E)-4-(2,9-diazaspiro[5.5]undec-2-yl)but-1-en-1-yl]-2-methylbenzyl}-5-(propan-2-yl)-1H-pyrazol-3-yl beta-D glucopyranoside acetate” (Eli Lilly and Company, priority 2013, dated 2017).

For one experiment, the target named is T1, human SGLT2 (Homo sapiens, UniProt P31639).
T1 sequence (P31639 1-672): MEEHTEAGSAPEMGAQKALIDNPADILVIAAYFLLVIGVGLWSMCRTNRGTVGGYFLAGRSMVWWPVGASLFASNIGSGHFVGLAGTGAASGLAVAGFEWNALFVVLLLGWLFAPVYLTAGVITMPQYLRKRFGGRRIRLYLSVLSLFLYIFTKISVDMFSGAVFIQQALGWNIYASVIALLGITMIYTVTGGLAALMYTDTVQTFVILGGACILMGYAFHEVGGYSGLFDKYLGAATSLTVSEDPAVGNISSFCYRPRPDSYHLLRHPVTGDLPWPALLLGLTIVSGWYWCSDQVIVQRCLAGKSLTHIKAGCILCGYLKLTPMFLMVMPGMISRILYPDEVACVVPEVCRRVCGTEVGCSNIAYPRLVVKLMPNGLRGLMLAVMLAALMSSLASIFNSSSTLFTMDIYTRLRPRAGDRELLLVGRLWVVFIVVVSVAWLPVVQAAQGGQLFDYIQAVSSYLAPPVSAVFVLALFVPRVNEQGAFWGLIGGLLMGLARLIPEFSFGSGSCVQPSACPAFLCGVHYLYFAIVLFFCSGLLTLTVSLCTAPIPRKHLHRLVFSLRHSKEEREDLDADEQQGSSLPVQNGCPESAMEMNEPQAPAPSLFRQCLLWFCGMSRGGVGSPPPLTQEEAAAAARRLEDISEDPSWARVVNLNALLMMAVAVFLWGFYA
Put plainly: Sodium-dependent 14C-AMG uptake in CHO-K1 cells expressing human SGLT2. The settings on record: n = 10. Format: cell-based. The text has this: (§1) The cDNA encoding human SGLT1 (slc5a1, NM_000343), human SGLT2 (slc5a2, NM_003041) and mouse SGLT1 (slc5a1, NM_019810.4) are purchased from Openbiosystems, Invitrogen and Openbiosystems, respectively. The cDNA is cloned into pcDNA3.1+ for mammalian expression and is stably transfected into Chinese hamster ovary (CHO)-K1 cells using standard mammalian transfection procedures. An SGLT-expressing sub-clone of each over-expressing cell line is selected based on resistance to neomycin (Geneticin, Invitrogen) and activity in the ^14C-α-methyl-D-glucopyranoside (^14C-AMG) uptake assay (see below). Stable SGLT-expressing cells are maintained using standard cell culture techniques.
(§2) The SGLT activity is measured as sodium-dependent ^14C-AMG uptake in the above cell lines described as follows. One hundred μL of culture medium containing 30,000 cells are seeded to each well of a 96-well BioCoat poly-D-lysine plate (Becton Dickson) and cultured at 37° C. overnight. The culture medium is aspirated and cells are washed twice with 200 μL of Reaction Buffer (140 mM NaCl, 2 mM KCl, 1 mM CaCl2, MgCl2, and 14 mM N-2-hydroethylpiperrazine-N′-2-ethanesulfonic acid (Hepes), pH 7.5). The excess buffer is tapped out onto paper towels. Thirty-five μL of Reaction Buffer are added to each well. […] After mixing, the scintillation signal in the plate is counted in a MicroBeta (PerkinElmer). […]

In the next experiment the target is T2, human SGLT1 (Homo sapiens, UniProt P13866).
T2 sequence (P13866 1-664): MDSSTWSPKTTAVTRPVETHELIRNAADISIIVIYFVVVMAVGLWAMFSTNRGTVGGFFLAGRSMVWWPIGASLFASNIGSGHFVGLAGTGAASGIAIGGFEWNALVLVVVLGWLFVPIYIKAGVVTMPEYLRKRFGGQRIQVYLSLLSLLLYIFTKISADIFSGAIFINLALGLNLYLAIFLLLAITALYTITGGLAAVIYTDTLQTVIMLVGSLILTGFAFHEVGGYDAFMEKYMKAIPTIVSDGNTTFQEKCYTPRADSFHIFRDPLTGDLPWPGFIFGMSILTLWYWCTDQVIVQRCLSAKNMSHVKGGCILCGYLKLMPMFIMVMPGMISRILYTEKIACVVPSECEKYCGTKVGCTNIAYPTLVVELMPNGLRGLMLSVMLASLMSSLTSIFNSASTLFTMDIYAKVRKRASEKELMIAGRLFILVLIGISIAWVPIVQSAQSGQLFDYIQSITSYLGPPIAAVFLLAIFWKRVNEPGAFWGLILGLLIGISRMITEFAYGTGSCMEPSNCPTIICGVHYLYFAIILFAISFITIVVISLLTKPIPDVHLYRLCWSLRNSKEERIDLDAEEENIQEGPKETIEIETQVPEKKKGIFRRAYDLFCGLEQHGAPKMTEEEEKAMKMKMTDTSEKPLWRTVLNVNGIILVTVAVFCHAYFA
Put plainly: Sodium-dependent 14C-AMG uptake in CHO-K1 cells expressing human SGLT1. Format: cell-based.
Text: as §1, §2

In the case of `Cc1cc(/C=C/CCN2CCCC3(CCNCC3)C2)ccc1Cc1c(O[C@@H]2O[C@H](CO)[C@@H](O)[C@H](O)[C@H]2O)n[nH]c1C(C)C` [Example 1 (free base), 4-{4-[(1E)-4-(2,9-diazaspiro[5.5]undec-2-yl)but-1-en-1-yl]-2-methylbenzyl}-5-(propan-2-yl)-1H-pyrazol-3-yl beta-D-glucopyranoside], the IC50 against human SGLT2 was determined as 6.1 ± 1.2 µM; against human SGLT1 (14C-AMG uptake, CHO-K1 cells, n = 10), 0.026 ± 0.02 µM. Moreover, at human SGLT1 (in vitro, from Table 2), the “Potency at SGLT1 relative to human SGLT2” value is “more potent at human and mouse SGLT1 than at human SGLT2”.
